Experiments:
[1] = molecular target: Beta-1 adrenergic receptor (Homo sapiens, UniProt P08588); type: functional
[2] = molecular target: T1, B1 bradykinin receptor (Homo sapiens, UniProt P46663)
T1 sequence (P46663 whole entry): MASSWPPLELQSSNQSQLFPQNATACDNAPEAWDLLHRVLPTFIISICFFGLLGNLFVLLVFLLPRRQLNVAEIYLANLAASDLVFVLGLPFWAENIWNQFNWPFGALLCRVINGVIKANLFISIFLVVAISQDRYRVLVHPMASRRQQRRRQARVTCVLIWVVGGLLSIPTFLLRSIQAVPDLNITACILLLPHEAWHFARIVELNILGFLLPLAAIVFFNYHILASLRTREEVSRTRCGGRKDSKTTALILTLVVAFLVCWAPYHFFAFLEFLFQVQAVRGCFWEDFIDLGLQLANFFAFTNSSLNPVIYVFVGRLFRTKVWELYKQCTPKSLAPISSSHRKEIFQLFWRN

[3] = molecular target: Cannabinoid receptor 1 (Homo sapiens, UniProt P21554); type: functional, cell-based
[4] = molecular target: T2, Corticotropin-releasing factor receptor 1 (Homo sapiens, UniProt P34998)
T2 sequence (P34998 whole entry): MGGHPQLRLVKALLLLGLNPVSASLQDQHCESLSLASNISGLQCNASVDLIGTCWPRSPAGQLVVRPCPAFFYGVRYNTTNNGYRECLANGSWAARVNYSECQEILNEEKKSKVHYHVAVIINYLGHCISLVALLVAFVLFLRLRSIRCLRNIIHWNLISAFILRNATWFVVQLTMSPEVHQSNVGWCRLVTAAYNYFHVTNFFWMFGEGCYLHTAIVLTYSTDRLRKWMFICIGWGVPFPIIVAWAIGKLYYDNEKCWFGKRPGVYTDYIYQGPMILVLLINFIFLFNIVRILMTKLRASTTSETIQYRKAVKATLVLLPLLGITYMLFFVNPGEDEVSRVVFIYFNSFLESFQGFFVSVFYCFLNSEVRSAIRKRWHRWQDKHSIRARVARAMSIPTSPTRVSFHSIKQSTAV

[5] = molecular target: Glucagon receptor (Homo sapiens, UniProt P47871)
[6] = molecular target: T3, Progesterone receptor (Homo sapiens, UniProt P06401)
T3 sequence (P06401 whole entry): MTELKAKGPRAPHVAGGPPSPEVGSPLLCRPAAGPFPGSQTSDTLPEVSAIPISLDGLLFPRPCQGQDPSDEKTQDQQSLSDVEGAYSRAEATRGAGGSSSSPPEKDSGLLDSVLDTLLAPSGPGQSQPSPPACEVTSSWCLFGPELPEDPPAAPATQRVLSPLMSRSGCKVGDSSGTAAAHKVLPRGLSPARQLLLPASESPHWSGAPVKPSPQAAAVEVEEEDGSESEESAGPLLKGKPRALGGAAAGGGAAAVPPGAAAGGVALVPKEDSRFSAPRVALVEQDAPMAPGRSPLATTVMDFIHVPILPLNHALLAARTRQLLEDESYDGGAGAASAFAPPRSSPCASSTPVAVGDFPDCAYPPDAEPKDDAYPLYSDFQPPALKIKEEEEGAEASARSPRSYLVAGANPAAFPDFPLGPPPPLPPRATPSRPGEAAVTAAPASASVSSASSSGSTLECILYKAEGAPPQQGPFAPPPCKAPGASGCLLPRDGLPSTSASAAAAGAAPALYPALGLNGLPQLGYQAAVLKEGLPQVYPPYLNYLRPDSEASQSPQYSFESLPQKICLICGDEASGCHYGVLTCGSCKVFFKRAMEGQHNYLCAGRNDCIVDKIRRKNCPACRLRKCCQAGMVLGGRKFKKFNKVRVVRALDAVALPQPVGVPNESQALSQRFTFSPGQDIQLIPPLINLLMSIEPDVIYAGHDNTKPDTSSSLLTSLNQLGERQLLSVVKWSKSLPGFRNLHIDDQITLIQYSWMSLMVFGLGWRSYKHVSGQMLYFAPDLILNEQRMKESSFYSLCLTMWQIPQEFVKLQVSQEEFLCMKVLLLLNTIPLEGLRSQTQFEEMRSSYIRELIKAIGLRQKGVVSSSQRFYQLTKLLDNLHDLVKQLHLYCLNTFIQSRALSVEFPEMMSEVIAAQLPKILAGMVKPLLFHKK

[7] = molecular target: Mu-type opioid receptor (Homo sapiens, UniProt P35372)
[8] = molecular target: T4, 5-hydroxytryptamine receptor 1A (Homo sapiens, UniProt P08908)
T4 sequence (P08908 whole entry): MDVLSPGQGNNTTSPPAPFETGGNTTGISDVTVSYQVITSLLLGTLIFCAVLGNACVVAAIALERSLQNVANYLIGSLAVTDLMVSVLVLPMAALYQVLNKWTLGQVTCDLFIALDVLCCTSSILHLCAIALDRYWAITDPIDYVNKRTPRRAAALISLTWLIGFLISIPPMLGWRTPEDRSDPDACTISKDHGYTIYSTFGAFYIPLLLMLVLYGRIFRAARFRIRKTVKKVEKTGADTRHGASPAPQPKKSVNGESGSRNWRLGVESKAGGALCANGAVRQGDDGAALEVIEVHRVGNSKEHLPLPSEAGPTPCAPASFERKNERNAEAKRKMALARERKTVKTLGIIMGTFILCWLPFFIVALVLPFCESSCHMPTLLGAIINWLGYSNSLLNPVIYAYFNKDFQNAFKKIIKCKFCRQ

[9] = molecular target: Histamine H3 receptor (Homo sapiens, UniProt Q9Y5N1)
[10] = molecular target: D(1A) dopamine receptor (Homo sapiens, UniProt P21728)
[11] = molecular target: Gamma-aminobutyric acid receptor subunit alpha-1 (Rattus norvegicus, UniProt P62813)
[12] = molecular target: T3, Progesterone receptor; remark: listed apart in the source
[13] = molecular target: Prostaglandin G/H synthase 1 (Homo sapiens, UniProt P23219); type: functional
Also: assay procedure not described here.

Sequence of Mu-type opioid receptor (P35372 whole entry): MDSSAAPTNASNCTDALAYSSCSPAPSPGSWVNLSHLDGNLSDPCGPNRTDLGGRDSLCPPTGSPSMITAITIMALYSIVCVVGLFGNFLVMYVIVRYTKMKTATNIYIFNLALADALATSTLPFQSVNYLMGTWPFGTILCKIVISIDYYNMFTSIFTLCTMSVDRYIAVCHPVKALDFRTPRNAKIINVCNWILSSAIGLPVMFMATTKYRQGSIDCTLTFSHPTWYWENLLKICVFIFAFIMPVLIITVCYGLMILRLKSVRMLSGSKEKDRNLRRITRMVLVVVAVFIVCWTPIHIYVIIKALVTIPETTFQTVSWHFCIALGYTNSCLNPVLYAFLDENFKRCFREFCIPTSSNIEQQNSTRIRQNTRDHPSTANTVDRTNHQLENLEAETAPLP
Sequence of Cannabinoid receptor 1 (P21554 whole entry): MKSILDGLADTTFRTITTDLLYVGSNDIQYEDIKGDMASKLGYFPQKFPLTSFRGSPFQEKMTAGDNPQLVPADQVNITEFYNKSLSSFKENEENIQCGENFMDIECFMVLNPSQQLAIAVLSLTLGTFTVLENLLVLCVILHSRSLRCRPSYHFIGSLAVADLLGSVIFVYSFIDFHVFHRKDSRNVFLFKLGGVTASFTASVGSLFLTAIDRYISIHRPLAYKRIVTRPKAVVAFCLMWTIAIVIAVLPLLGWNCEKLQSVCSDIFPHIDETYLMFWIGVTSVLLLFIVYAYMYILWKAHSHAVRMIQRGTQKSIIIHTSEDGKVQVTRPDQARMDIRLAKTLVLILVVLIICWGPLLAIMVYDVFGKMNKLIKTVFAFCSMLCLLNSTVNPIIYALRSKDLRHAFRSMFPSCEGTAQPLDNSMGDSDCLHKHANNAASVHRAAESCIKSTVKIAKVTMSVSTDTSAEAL
Sequence of Glucagon receptor (P47871 whole entry): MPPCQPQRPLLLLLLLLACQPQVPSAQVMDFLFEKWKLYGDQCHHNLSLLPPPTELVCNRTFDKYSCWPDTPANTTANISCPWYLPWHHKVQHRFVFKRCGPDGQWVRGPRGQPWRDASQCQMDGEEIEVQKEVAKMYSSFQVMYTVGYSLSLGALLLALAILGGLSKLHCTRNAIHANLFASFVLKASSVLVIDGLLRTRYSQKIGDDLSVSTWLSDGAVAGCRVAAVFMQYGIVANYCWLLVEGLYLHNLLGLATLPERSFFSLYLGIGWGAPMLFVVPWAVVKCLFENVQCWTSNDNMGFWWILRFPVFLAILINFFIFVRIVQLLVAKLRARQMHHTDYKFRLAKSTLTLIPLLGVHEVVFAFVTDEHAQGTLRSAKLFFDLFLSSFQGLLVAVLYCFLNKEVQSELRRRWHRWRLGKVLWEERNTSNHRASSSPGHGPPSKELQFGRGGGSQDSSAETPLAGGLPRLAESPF
Sequence of Beta-1 adrenergic receptor (P08588 whole entry): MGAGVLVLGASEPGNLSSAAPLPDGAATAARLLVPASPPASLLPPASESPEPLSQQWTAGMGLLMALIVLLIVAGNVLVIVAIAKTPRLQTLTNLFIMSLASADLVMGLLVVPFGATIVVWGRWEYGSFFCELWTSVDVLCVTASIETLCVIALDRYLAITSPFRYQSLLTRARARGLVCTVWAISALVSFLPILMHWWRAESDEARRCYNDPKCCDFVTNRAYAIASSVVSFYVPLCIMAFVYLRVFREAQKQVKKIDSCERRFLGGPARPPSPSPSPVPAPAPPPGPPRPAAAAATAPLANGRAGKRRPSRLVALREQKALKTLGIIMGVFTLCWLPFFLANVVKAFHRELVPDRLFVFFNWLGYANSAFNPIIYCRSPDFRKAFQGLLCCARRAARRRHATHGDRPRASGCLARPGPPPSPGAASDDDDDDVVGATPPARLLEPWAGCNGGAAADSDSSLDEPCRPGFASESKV
Sequence of Histamine H3 receptor (Q9Y5N1 whole entry): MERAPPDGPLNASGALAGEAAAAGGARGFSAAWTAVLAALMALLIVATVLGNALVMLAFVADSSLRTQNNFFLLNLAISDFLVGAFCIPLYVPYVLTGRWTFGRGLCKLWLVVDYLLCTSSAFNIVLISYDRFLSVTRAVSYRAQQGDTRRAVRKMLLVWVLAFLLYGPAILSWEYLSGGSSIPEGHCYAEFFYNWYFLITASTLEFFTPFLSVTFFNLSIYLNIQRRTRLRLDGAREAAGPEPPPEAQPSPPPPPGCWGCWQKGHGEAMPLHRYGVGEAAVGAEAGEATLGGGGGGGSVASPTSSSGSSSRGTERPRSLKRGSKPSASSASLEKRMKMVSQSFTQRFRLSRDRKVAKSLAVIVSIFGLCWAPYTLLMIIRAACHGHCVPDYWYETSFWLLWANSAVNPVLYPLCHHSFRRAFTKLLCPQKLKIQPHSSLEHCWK
Sequence of D(1A) dopamine receptor (P21728 whole entry): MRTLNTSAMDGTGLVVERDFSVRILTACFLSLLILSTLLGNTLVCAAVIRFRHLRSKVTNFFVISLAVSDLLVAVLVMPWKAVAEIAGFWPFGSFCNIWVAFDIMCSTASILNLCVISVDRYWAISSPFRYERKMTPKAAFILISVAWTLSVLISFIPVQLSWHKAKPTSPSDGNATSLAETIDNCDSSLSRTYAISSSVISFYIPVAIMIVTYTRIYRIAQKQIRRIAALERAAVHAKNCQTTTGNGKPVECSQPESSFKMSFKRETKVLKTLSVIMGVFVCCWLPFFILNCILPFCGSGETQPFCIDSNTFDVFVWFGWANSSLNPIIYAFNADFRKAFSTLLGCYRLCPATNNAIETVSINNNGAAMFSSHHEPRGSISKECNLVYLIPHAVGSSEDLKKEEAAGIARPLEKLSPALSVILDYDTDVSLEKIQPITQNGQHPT
Sequence of Prostaglandin G/H synthase 1 (P23219 whole entry): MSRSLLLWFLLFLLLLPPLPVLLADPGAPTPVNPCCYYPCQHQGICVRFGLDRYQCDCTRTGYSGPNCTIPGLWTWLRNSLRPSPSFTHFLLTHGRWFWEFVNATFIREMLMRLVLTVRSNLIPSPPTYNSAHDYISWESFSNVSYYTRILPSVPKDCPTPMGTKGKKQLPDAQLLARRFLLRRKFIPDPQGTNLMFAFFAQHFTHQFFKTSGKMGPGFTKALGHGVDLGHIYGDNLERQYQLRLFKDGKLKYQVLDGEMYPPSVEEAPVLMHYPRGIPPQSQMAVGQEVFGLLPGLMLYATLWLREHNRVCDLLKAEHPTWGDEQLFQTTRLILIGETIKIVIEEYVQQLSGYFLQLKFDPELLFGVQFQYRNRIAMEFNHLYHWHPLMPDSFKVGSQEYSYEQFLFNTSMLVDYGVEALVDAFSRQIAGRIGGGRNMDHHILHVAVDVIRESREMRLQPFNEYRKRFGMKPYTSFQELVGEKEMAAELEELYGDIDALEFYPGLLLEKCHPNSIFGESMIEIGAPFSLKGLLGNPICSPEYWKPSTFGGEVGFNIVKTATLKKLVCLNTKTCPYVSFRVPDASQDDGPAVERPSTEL
Sequence of Gamma-aminobutyric acid receptor subunit alpha-1 (P62813 whole entry): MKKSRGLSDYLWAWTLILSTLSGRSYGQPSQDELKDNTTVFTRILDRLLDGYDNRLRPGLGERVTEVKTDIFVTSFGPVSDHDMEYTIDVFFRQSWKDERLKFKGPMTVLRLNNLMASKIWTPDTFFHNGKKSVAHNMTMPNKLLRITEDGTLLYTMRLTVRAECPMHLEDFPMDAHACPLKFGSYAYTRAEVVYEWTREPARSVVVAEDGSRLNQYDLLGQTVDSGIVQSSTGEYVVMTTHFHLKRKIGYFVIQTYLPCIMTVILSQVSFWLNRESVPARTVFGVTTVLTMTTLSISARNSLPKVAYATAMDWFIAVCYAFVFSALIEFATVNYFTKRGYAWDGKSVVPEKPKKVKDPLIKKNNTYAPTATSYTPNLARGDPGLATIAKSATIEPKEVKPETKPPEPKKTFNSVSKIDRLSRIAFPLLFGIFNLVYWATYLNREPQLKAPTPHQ

| Compound | AC50 [1] [µM] | AC50 [2] [µM] | AC50 [3] [µM] | AC50 [4] [µM] | AC50 [5] [µM] | AC50 [6] [µM] | AC50 [7] [µM] | AC50 [8] [µM] | AC50 [9] [µM] | AC50 [10] [µM] | AC50 [11] [µM] | AC50 [12] [µM] | AC50 [13] [µM] |
| --- | --- | --- | --- | --- | --- | --- | --- | --- | --- | --- | --- | --- | --- |
| CC12CC3CC(C)(C1)CC(N)(C3)C2 [MEMANTINE] | > 10 | > 30 | > 30 | > 30 | > 30 | > 30 | > 10 | > 10 | > 10 | – | – | – | – |
| CCOC(=O)C1=C(C)NC(C)=C(C(=O)OC)C1c1cccc([N+](=O)[O-])c1 (stereo not drawn) [NITRENDIPINE] | > 10 | > 30 | > 30 | > 30 | > 30 | > 30 | > 30 | > 10 | > 10 | – | – | – | – |
| OC1(c2ccc(Cl)cc2)c2ccccc2C2=NCCN21 (stereo not drawn) [MAZINDOL] | > 30 | > 30 | > 30 | > 30 | > 30 | > 30 | > 10 | > 10 | > 30 | – | – | – | – |
| CN1CCN(C2=Nc3ccccc3Oc3ccc(Cl)cc32)CC1 [LOXAPINE] | > 10 | > 30 | > 30 | > 30 | > 30 | > 30 | 13 | 33.1 | > 10 | 0.0245 | > 30 | > 30 | > 30 |
| CC(CCc1ccc(O)cc1)NCCc1ccc(O)c(O)c1 (stereo not drawn) [DOBUTAMINE] | 5.58 | > 30 | > 30 | > 30 | > 30 | > 30 | 1.7 | > 10 | > 30 | – | – | – | – |
| CC(N)C(O)c1ccccc1 (stereo not drawn) [PHENYLPROPANOLAMINE] | > 10 | > 30 | > 30 | > 30 | > 30 | > 30 | > 10 | > 10 | > 10 | – | – | – | – |

Source: ChEMBL document CHEMBL5291721, “A preclinical secondary pharmacology resource illuminates target-adverse drug reaction associations of marketed drugs” (Nat Commun, 2023)
